Patent EP0966414B1, “TRIARYLMETHYL FREE RADICALS AS IMAGE ENHANCING AGENTS” (Amersham Health AS, priority 1997, dated 1998)

Assay: ESR spectrum linewidth in aqueous solution
Assay type: physicochemical
Details: 100 G, singlet
Protocol: For the method according to the invention the preferred radicals are those which have relatively few transitions, e.g. less than 15, preferably less than 10, in their ESR spectra and radicals having narrow linewidth ESR transitions, e.g. up to 500 mG, preferably less than 150 mG, especially less than 60 mG and particularly less than 25mG, are especially preferred. (The linewidths referred to are conveniently the intrinsic linewidths (full width at half maximum in the absorption spectrum) under ambient conditions).

Substance | ESR linewidth (2.5 mM aqueous solution) [mg] | ESR linewidth (1.0 mM in H2O) [mg]
Tris(8-carboxyl-2,2,6,6-tetra(hydroxyethyl)-benzo[1,2-d:4,5-d']bis(1,3)dithiole-4-yl)methyl N,N-bis(1,2-dihydroxyprop-3-yl)-acetamid-2-yl-ester [Example 23] |  | 226
Tris (8-carboxyl-2,2,6,6-tetra (2-(1-hydroxy-2.2-d2-ethyl))-benzo[1,2-d:4,5-d']bis(1,3)dithiole -4-yl)methyl sodium salt [Example 21] |  | 70

Results, then the substance that gave them:

ESR linewidth (2.5 mM aqueous solution) [mg] | ESR linewidth (1.0 mM in H2O) [mg] | Substance
195 |  | Tris (8-carboxymethylthio-2,2,6,6-(2-(1-hydroxyethyl)) benzo[1,2-d:4,5-d']bis(1,3)dithiole-4-yl)methyl sodium salt [Example 9]
 | 274 | Tris(8-[N,N-bis(2,3-dihydroxypropyl)aminocarbonylmethylthiol-2,2,6,6-tetra-(2-(1-hydroxyethyl))benzo[1,2-d:4,5-d'] bis(1,3)dithiole-4-yl)methyl [Example 11]
 | 160 | Tris(8-carboxy-2,2,6,6-tetra-(hydroxyethyl)benzo[1,2-d:4,5-d']bis(1,3)dithiole-4-yl)methyl sodium salt [Example 7]
